Experimental data published in patent US20090214514A1, “GUS3 NEUROPEPTIDES FOR REGULATING HYPOTHALAMIC FUNCTION” (priority 2004, published 2009).
No end group written: not given here.

Test: Standard 24-hour thirst assay: acute effect of icv GUS3 peptides on food and water intake
Type: in vivo, Sprague Dawley rats
Conditions: rats thirsted 24 h, not food deprived, single ICV injection in 5 uL vehicle 15 min before reintroduction of water, intake recorded at 30 min, 60 min, 2 h, 3 h; for effect on food intake: vs vehicle (FIG. 8A); for effect on water intake: vs vehicle (FIG. 8B)
Description: Animals are injected with the substances after a 24 hr thirst period and food and water intake is monitored at 30 minutes, 60 minutes, 2 hours, 3 hours, and 24 hours.
Thirty-six regular Sprague Dawley rats (Charles River, Germany) weighing approximately 250 gram at the start of the experiment were used for these experiments. All animals were kept under a 12/12 L/D cycle (lights on at 0300) and in temperature and humidity controlled rooms. The animals were allowed a 5 day acclimatisation period after arrival to the test facility in order to reduce stress effects.
All experiments are conducted in accordance with internationally accepted principles for the care and use of laboratory animals and are approved by the Danish committee for animal research. Under Hypnorm Dormicum (Nomeco A/S, Copenhagen Denmark) anesthesia all animals were stereotaxically equipped with a stainless steel cannula aimed at the lateral ventricle (1 mm caudal and 1.5 mm lateral from bregma and 4 mm depth). During a 7 day recovery period, the rats were handled daily in order to accustom them to the experimental procedure.
The following peptides were ordered from Schafer-N, Copenhagen (see also example 2):
The animals were divided into 4 weight-matched groups prior to the test: • Group 4 Vehicle control (5 μL PBS) • Group 3 GUS3 C (10 ug) icv in 5 uL vehicle • Group 2 GUS3 M (1 ug) icv in 5 uL vehicle • Group 1 GUS3 N (10 ug) icv in 5 uL vehicle
The rats were thirsted but not food deprived twenty-four hours before the experiment. Fifteen minutes prior to reintroduction of water (time=0) the animals received an ICV injection of […] of one of the 3 peptides dissolved in 5 μL vehicle or of vehicle alone. Water and food intake was recorded at time=30 minutes, 60 minutes, 2 hour, 3 hours and 24 hours.
The data are evaluated by relevant statistical analyses (Statview software). Results are presented as mean±SEM (standard error of the mean). Statistical evaluation of the data is carried out using one-way analysis of variance (ANOVA) with appropriate post-hoc analysis between control and treatment groups in cases where statistical significance is established (p<0.05; Scheffe or Bonferoni).

| Substance | effect on food intake | effect on water intake |
| --- | --- | --- |
| TIARQTARCAC (listed as Homo sapiens) [GUS3 M] | did not seem to affect | did not seem to affect |
| ac-QFLKEGQLAAGTCEIVTLDRDSSQP (Ac-QFLKEGQLAAGTCEIVTLDRDSSQP; listed as Homo sapiens) [GUS3 N] | did not seem to affect | did not seem to affect |
